Laboratory results from patent US20230123856A1, “5-FLUORONICOTINAMIDE DERIVATIVES AND USES THEREOF” (Tenaya Therapeutics, Inc., priority 2019, published 2023).

What follows are compounds tested against T1, HDAC6 (Homo sapiens, UniProt Q9UBN7) (assay: Biochemical luminescent HDAC-Glo I/II assay, HDAC6). Settings: recombinant HDAC6 protein, HDAC-Glo I/II luminescent substrate.
T1 sequence (Q9UBN7 1-1215): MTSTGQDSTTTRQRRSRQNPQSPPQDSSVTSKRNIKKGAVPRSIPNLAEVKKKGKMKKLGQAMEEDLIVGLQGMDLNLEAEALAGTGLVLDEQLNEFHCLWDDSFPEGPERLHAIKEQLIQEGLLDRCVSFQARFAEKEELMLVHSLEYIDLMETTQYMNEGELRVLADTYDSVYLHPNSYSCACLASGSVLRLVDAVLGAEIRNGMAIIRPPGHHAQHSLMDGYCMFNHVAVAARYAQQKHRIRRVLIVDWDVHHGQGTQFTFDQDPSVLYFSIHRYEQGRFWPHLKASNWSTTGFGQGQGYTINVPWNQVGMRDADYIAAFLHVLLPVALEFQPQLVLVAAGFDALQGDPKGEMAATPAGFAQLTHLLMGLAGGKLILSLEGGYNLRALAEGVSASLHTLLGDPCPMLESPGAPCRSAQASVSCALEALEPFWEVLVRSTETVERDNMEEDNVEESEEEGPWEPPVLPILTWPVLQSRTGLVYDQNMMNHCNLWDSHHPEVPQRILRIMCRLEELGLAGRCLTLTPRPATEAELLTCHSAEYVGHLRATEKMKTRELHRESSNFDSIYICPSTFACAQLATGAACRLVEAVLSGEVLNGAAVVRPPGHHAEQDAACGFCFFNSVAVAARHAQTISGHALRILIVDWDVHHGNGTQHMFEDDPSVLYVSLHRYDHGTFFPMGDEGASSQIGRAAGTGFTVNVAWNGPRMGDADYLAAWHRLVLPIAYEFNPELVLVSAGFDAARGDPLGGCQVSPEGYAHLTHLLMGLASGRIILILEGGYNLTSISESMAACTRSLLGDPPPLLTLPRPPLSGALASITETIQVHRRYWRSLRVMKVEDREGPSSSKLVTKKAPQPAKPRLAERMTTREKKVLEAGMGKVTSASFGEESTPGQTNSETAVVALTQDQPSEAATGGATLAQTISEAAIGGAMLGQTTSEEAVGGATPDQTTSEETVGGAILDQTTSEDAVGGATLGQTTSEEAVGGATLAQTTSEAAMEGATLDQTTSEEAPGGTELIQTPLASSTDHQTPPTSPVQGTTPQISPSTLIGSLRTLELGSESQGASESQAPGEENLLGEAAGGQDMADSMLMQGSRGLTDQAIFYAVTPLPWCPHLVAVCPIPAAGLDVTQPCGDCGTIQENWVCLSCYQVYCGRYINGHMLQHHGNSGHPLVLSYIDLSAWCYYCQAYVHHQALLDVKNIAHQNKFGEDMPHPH
An IC50 of 4.71 nM was found for COCCC1(Nc2ncc(C(=O)NO)cc2F)CC1 [Compound I-44] in this work. An IC50 of 7.67 nM was found for O=C(NO)c1cnc(NC2(c3ccccn3)COC2)c(F)c1 [Compound I-56] in this work. An IC50 of 3.97 nM was found for O=C(NO)c1cnc(NC2(C3CC3)CC2)c(F)c1 [Compound I-41] in this work. An IC50 of 5.11 nM was found for O=C(NO)c1cnc(Cn2c(C(F)(F)F)nc3ccccc32)c(F)c1 [Compound I-49] in this work. An IC50 of 4.29 nM was found for COC(=O)N(Cc1ncc(C(=O)NO)cc1F)c1ncccc1O [Compound I-52] in this work. An IC50 of 3.36 nM was found for CCC1(Nc2ncc(C(=O)NO)cc2F)COC1 [Compound I-40] in this work. An IC50 of 5.67 nM was found for CO[C@H]1COC[C@@H]1Nc1ncc(C(=O)NO)cc1F [Compound I-38] in this work. An IC50 of 29.2 nM was found for O=C(NO)c1cnc(NC2(c3ncccn3)CC2)c(F)c1 [Compound I-46, 5-fluoro-N-hydroxy-6-((1-(pyrimidin-2-yl)cyclopropyl)amino)nicotinamide] in this work. An IC50 of 2.27 nM was found for O=C(NO)c1cnc(Cn2c3c(c4ccccc42)S(=O)(=O)CC3)c(F)c1 [Compound I-48] in this work. An IC50 of 2.18 nM was found for O=C(NO)c1cnc(NC2(c3ccccn3)CCC2)c(F)c1 [Compound I-37] in this work. An IC50 of 34.3 nM was found for CN1CC[C@H](Nc2ncc(C(=O)NO)cc2F)C1=O [Compound I-42A] in this work. An IC50 of 1.12 nM was found for COCC1(Nc2ncc(C(=O)NO)cc2F)CC(F)(F)C1 [Compound I-39] in this work. An IC50 of 41.7 nM was found for CN1CC[C@@H](Nc2ncc(C(=O)NO)cc2F)C1=O [Compound I-42B] in this work. An IC50 of 2.98 nM was found for Cc1cc2cccnc2n1Cc1ncc(C(=O)NO)cc1F [Compound I-50] in this work. An IC50 of 80.3 nM was found for O=C(NO)c1cnc(Cn2c(N3CCOCC3)nc3ccccc32)c(F)c1 [Compound I-54] in this work. An IC50 of 4.36 nM was found for CN1Cc2ccccc2N(Cc2ncc(C(=O)NO)cc2F)C1=O [Compound I-47] in this work. An IC50 of 8.69 nM was found for Cc1nc2cccnc2n1Cc1ncc(C(=O)NO)cc1F [Compound I-53] in this work. An IC50 of 25.7 nM was found for O=C(NO)c1cnc(N[C@@H]2CCNC2=O)c(F)c1 [Compound I-43B] in this work. An IC50 of 6.51 nM was found for O=C(NO)c1cnc(NC2(c3ncccc3F)CC2)c(F)c1 [Compound I-45, 5-fluoro-6-{[1-(3-fluoropyridin-2-yl)cyclopropyl]amino}-N-hydroxypyridine-3-carboxamide] in this work. An IC50 of 14.6 nM was found for O=C(NO)c1cnc(OC2(c3ccccn3)COC2)c(F)c1 [III-2, 5-fluoro-N-hydroxy-6-{[3-(pyridin-2-yl)oxetan-3-yl]oxy}pyridine-3-carboxamide] in this work. An IC50 of 3.88 nM was found for O=C(NO)c1cnc(Cn2ccc3cc(C(=O)NC4CC4)cnc32)c(F)c1 [Compound I-55, N-cyclopropyl-1-((3-fluoro-5-(hydroxycarbamoyl)pyridin-2-yl)methyl)-1H-pyrrolo[2,3-b]pyridine-5-carboxamide] in this work. An IC50 of 1.94 nM was found for Cc1c(C)n(Cc2ncc(C(=O)NO)cc2F)c2ncccc12 [Compound I-51] in this work. An IC50 of 51.1 nM was found for O=C(NO)c1cnc(N[C@H]2CCNC2=O)c(F)c1 [Compound I-43A] in this work.
